Reference: PubChem BioAssay (NCI)
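Interpolation was linear, between the two tested concentrations surrounding the appropriate level; five concentrations were tested over 48 hours in 96-well plates. Here, GI50 denotes the concentration required for 50% inhibition of growth. TGI: concentration producing complete growth inhibition.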

How the values were obtained:
Experiment in all cases: growth of human tumour cells (NCI), 48 h
HOP-92 NSCLC = system: HOP-92 NSCLC
NCI-H460 lung = system: NCI-H460 lung
LOX IMVI melanoma = system: LOX IMVI melanoma
A549 NSCLC = system: A549 NSCLC
DU-145 prostate = system: DU-145 prostate
MDA-MB-468 breast = system: MDA-MB-468 breast
SF-268 CNS = system: SF-268 CNS
OVCAR-4 ovarian = system: OVCAR-4 ovarian
HCC-2998 colon = system: HCC-2998 colon
M14 melanoma = system: M14 melanoma
A498 renal = system: A498 renal
HL-60(TB) leukemia = system: HL-60(TB) leukemia
KM12 colon = system: KM12 colon
COLO 205 colon = system: COLO 205 colon
K-562 leukemia = system: K-562 leukemia
MOLT-4 leukemia = system: MOLT-4 leukemia
IGROV1 ovarian = system: IGROV1 ovarian
BT-549 breast = system: BT-549 breast
ACHN renal = system: ACHN renal
T-47D breast = system: T-47D breast
SN12C renal = system: SN12C renal
OVCAR-8 ovarian = system: OVCAR-8 ovarian
UACC-62 melanoma = system: UACC-62 melanoma
CCRF-CEM leukemia = system: CCRF-CEM leukemia
786-0 renal = system: 786-0 renal
SNB-19 CNS = system: SNB-19 CNS
HS 578T breast = system: HS 578T breast
UACC-257 melanoma = system: UACC-257 melanoma
SNB-75 CNS = system: SNB-75 CNS
UO-31 renal = system: UO-31 renal
OVCAR-5 ovarian = system: OVCAR-5 ovarian
SF-295 CNS = system: SF-295 CNS
HCT-116 colon = system: HCT-116 colon
MDA-MB-435 = system: MDA-MB-435
EKVX NSCLC = system: EKVX NSCLC
NCI-H226 lung = system: NCI-H226 lung
NCI-H522 lung = system: NCI-H522 lung
SK-MEL-28 melanoma = system: SK-MEL-28 melanoma
OVCAR-3 ovarian = system: OVCAR-3 ovarian
RXF 393 renal = system: RXF 393 renal
SW-620 colon = system: SW-620 colon
TK-10 renal = system: TK-10 renal
SK-OV-3 ovarian = system: SK-OV-3 ovarian
MCF7 breast = system: MCF7 breast
HT29 colon = system: HT29 colon
U251 CNS = system: U251 CNS
HCT-15 colon = system: HCT-15 colon
NCI-H23 lung = system: NCI-H23 lung
HOP-62 NSCLC = system: HOP-62 NSCLC
SK-MEL-5 melanoma = system: SK-MEL-5 melanoma
PC-3 prostate = system: PC-3 prostate
MALME-3M melanoma = system: MALME-3M melanoma
SF-539 CNS = system: SF-539 CNS
RPMI-8226 leukemia = system: RPMI-8226 leukemia
CAKI-1 renal = system: CAKI-1 renal
MDA-MB-231 breast = system: MDA-MB-231 breast
SR leukemia = system: SR leukemia

Compound `CCC(C)(C)c1ccc(OCCCCN2CCN(c3ccncc3)CC2)cc1` has a GI50 (HOP-92 NSCLC) of 1.97 µM, a TGI (HOP-92 NSCLC) of 15.6 µM and a GI50 (NCI-H460 lung) of 10.1 µM. For the same compound, the TGI (NCI-H460 lung) was 24 µM, the GI50 (LOX IMVI melanoma) was 1.9 µM and the TGI (LOX IMVI melanoma) was 3.64 µM. For the same compound, the GI50 (A549 NSCLC) was 12.5 µM, the TGI (A549 NSCLC) was 27.3 µM and the GI50 (DU-145 prostate) was 13.4 µM. The TGI (DU-145 prostate) was 26.7 µM, the GI50 (MDA-MB-468 breast) was 2.27 µM and the TGI (MDA-MB-468 breast) was 5.8 µM. For the same compound, the GI50 (SF-268 CNS) was 15.3 µM, the TGI (SF-268 CNS) was 31 µM and the GI50 (OVCAR-4 ovarian) was 11.6 µM. For the same compound, the TGI (OVCAR-4 ovarian) was 25 µM, the GI50 (HCC-2998 colon) was 2.29 µM and the TGI (HCC-2998 colon) was 5.48 µM. For the same compound, the GI50 (M14 melanoma) was 10.6 µM, the TGI (M14 melanoma) was 22.8 µM and the GI50 (A498 renal) was 17.3 µM. For the same compound, the TGI (A498 renal) was 31.7 µM, the GI50 (HL-60(TB) leukemia) was 1.93 µM and the TGI (HL-60(TB) leukemia) was 4.42 µM. The GI50 (KM12 colon) was 10.8 µM, the TGI (KM12 colon) was 24.3 µM and the GI50 (COLO 205 colon) was 2.14 µM. The TGI (COLO 205 colon) was 4.03 µM, the GI50 (K-562 leukemia) was 1.98 µM and the TGI (K-562 leukemia) was 11.2 µM. The GI50 (MOLT-4 leukemia) was 4.63 µM, the TGI (MOLT-4 leukemia) was 24.4 µM and the GI50 (IGROV1 ovarian) was 13.7 µM. It also gave a TGI (IGROV1 ovarian) of 27.3 µM, a GI50 (BT-549 breast) of 5.79 µM and a TGI (BT-549 breast) of 19.2 µM. The GI50 (ACHN renal) was 15 µM, the TGI (ACHN renal) was 28.3 µM and the GI50 (T-47D breast) was 5.27 µM. It also gave a TGI (T-47D breast) of 22.8 µM, a GI50 (SN12C renal) of 13 µM and a TGI (SN12C renal) of 26 µM. It also gave a GI50 (OVCAR-8 ovarian) of 14.1 µM, a TGI (OVCAR-8 ovarian) of 32 µM and a GI50 (UACC-62 melanoma) of 13.5 µM. For the same compound, the TGI (UACC-62 melanoma) was 26.4 µM, the GI50 (CCRF-CEM leukemia) was 6.07 µM and the TGI (CCRF-CEM leukemia) was 37.7 µM. For the same compound, the GI50 (786-0 renal) was 7.54 µM, the TGI (786-0 renal) was 20.1 µM and the GI50 (SNB-19 CNS) was 11.3 µM. It also gave a TGI (SNB-19 CNS) of 23.6 µM, a GI50 (HS 578T breast) of 13.8 µM and a TGI (HS 578T breast) of 38.8 µM. For the same compound, the GI50 (UACC-257 melanoma) was 13.4 µM, the TGI (UACC-257 melanoma) was 27.5 µM and the GI50 (SNB-75 CNS) was 13.4 µM. For the same compound, the TGI (SNB-75 CNS) was 26.6 µM, the GI50 (UO-31 renal) was 12.2 µM and the TGI (UO-31 renal) was 24.7 µM. For the same compound, the GI50 (OVCAR-5 ovarian) was 12.7 µM, the TGI (OVCAR-5 ovarian) was 25.2 µM and the GI50 (SF-295 CNS) was 4.02 µM. It also gave a TGI (SF-295 CNS) of 15.3 µM, a GI50 (HCT-116 colon) of 4.65 µM and a TGI (HCT-116 colon) of 16.3 µM. It also gave a GI50 (MDA-MB-435) of 8.9 µM, a TGI (MDA-MB-435) of 21.1 µM and a GI50 (EKVX NSCLC) of 7.78 µM. The TGI (EKVX NSCLC) was 21.6 µM, the GI50 (NCI-H226 lung) was 11.5 µM and the TGI (NCI-H226 lung) was 25.3 µM. It also gave a GI50 (NCI-H522 lung) of 15.6 µM, a TGI (NCI-H522 lung) of 31 µM and a GI50 (SK-MEL-28 melanoma) of 7.48 µM. It also gave a TGI (SK-MEL-28 melanoma) of 20.3 µM, a GI50 (OVCAR-3 ovarian) of 11.2 µM and a TGI (OVCAR-3 ovarian) of 24 µM. The GI50 (RXF 393 renal) was 2.77 µM, the TGI (RXF 393 renal) was 14.6 µM and the GI50 (SW-620 colon) was 4.82 µM. It also gave a TGI (SW-620 colon) of 18.2 µM, a GI50 (TK-10 renal) of 15.9 µM and a TGI (TK-10 renal) of 29.8 µM. The GI50 (SK-OV-3 ovarian) was 14.7 µM, the TGI (SK-OV-3 ovarian) was 29 µM and the GI50 (MCF7 breast) was 3.08 µM. For the same compound, the TGI (MCF7 breast) was 10.7 µM, the GI50 (HT29 colon) was 3.45 µM and the TGI (HT29 colon) was 14 µM. The GI50 (U251 CNS) was 5.92 µM, the TGI (U251 CNS) was 19.4 µM and the GI50 (HCT-15 colon) was 2.08 µM. The TGI (HCT-15 colon) was 4.82 µM, the GI50 (NCI-H23 lung) was 5.46 µM and the TGI (NCI-H23 lung) was 18.4 µM. It also gave a GI50 (HOP-62 NSCLC) of 12.4 µM, a TGI (HOP-62 NSCLC) of 27 µM and a GI50 (SK-MEL-5 melanoma) of 6.63 µM. It also gave a TGI (SK-MEL-5 melanoma) of 19.3 µM, a GI50 (PC-3 prostate) of 5.29 µM and a TGI (PC-3 prostate) of 25.4 µM. For the same compound, the GI50 (MALME-3M melanoma) was 7.82 µM, the TGI (MALME-3M melanoma) was 20.5 µM and the GI50 (SF-539 CNS) was 5.15 µM. The TGI (SF-539 CNS) was 18.2 µM, the GI50 (RPMI-8226 leukemia) was 4.59 µM and the TGI (RPMI-8226 leukemia) was 24.2 µM. It also gave a GI50 (CAKI-1 renal) of 13.9 µM, a TGI (CAKI-1 renal) of 27.5 µM and a GI50 (MDA-MB-231 breast) of 11 µM. It also gave a TGI (MDA-MB-231 breast) of 23.4 µM, a GI50 (SR leukemia) of 3.06 µM and a TGI (SR leukemia) of 10.1 µM.
